Data: US11345699B2, “Apoptosis signal-regulating kinase 1 inhibitors and methods of use thereof” (Enanta Pharmaceuticals, Inc., priority 2018, dated 2022)

Target: ASK1 (Homo sapiens (Human), UniProt Q99683)
Assay: HTRF KinEASE Assay (TR-FRET), inhibition of ASK1
Assay type: biochemical
Details: ASK1 kinase, 100 μM ATP, 1 μM STK3 peptide substrate, compound 0 to 10 μM
Method: Assay HTRF® KinEASE™ Assay
ASK1 was purchased from Thermofisher (Catalogue #PV4011), ATP was purchased from Sigma (Catalogue #A7699), HTRF® KinEASE™ Assay System was obtained from Cisbio (Bedford, Mass.). ½ Area plate was purchased from Perkin Elmer (Catalogue ##6005560). HTRF® KinEASE™-STK is a generic method for measuring serine/threonine kinase activities using a time-resolved fluorescence resonance energy transfer (TR-FRET) immunoassay. The IC50 value for each compound was determined in the presence of compound (various concentration from 0 to 10 μM) and a fixed amount of ATP and peptide substrates. The test compound, 1 μM STK3 peptide substrate, and […] of ASK1 kinase are incubated with kinase reaction buffer containing 50 mM HEPES Ph 7.5, 0.01% BRIJ-35, 10 mM MgCl2, and 1 mM EGTA for 30 minutes. 100 μM ATP is added to start kinase reaction and incubated for 3 hours. The STK3-antibody labeled with Eu^3+-Cryptate and 125 nM streptavidin-XL665 are mixed in a single addition with stop reagents provided by the Cisbio kit used to stop the kinase reaction. Fluorescence is detected using an Envision Multilabeled 2014 reader from PerkinElmer. The Fluorescence is measured at 615 nm (Cryptate) and 665 nm (XL665) and a ratio of 665 nm/615 nm is calculated for each well. The resulting TR-FRET is proportional to the phosphorylation level. Staurosporine was used as the positive control. IC50 was determined by Xlfit 5.3.
By using above method, the inhibition of ASK1 was evaluated for the compounds of Formula (I). Example numbers correspond to those in Table 5.

Sequence of ASK1 (Q99683 whole entry): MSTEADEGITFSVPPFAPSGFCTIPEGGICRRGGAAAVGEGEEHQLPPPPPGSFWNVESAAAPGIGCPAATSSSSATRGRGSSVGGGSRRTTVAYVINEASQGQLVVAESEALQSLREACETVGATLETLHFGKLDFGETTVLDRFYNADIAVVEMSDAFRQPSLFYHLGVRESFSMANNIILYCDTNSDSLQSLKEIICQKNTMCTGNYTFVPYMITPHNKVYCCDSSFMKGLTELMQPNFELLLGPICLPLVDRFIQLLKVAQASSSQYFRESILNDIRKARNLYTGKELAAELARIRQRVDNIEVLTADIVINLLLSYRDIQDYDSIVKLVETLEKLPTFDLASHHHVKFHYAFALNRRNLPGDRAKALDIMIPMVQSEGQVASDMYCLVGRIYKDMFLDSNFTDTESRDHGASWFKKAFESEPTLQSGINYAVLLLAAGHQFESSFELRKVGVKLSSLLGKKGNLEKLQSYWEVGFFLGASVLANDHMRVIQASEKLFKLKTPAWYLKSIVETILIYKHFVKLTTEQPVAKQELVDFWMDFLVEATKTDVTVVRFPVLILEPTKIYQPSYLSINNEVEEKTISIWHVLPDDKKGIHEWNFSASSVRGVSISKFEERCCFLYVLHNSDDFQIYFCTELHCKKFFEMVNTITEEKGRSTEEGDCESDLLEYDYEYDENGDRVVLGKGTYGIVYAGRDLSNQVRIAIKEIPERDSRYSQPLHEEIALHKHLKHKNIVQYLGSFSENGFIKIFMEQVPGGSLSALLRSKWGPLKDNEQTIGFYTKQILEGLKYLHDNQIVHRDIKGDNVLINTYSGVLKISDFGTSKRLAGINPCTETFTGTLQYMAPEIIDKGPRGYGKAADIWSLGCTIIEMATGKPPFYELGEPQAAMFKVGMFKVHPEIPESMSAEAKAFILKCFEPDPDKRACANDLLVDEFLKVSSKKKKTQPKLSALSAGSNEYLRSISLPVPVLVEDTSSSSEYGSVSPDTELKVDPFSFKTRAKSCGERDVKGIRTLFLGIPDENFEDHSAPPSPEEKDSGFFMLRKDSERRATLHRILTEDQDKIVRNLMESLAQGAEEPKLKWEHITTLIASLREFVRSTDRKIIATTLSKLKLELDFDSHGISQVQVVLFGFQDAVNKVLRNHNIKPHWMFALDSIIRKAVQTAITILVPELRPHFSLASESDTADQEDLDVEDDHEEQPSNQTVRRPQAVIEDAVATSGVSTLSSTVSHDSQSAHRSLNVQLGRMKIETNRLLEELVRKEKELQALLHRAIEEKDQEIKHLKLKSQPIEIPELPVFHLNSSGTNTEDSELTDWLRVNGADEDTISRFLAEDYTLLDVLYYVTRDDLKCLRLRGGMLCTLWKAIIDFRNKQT

Structure (SMILES) | IC50
CCNS(=O)(=O)N1CCc2cc(F)c(C(=O)Nc3cccc(-c4nnnn4[C@H](C)CO)n3)cc2C1 [Example 118] | 1.25 to 10 nM
COc1cc2c(cc1C(=O)Nc1cccc(-c3nnnn3[C@H](C)CO)n1)CN(c1ncccn1)CC2 [Example 84, (R)-N-(6-(1-(1-hydroxypropan-2-yl)-1H-tetrazol-5-yl)pyridin-2-yl)-6-methoxy-2-(pyrimidin-2-yl)-1,2,3,4-tetrahydroisoquinoline-7-carboxamide] | 1.25 to 10 nM
CC(C)n1cnnc1-c1cccc(NC(=O)c2cc3c(cc2F)CCN(C(=O)OC(C)(C)C)C3)n1 [Example 10, tert-butyl 6-fluoro-7-((6-(4-isopropyl-4H-1,2,4-triazol-3-yl)pyridin-2-yl)carbamoyl)-3,4-dihydroisoquinoline-2(1H)-carboxylate] | 1.25 to 10 nM
C[C@H](CO)n1nnnc1-c1cccc(NC(=O)c2cc3c(cn2)CCN(C(=O)N2CCOCC2)C3)n1 [Example 139] | 1.25 to 10 nM
C[C@H](CO)n1nnnc1-c1cccc(NC(=O)c2cc3c(cc2F)CCN(Cc2ccc(F)cc2)C3)n1 [Example 121] | 10 to 100 nM
C[C@H](CO)n1nnnc1-c1cccc(NC(=O)c2cc3c(cn2)CCN(c2ncccn2)C3)n1 [Example 108, (R)—N-(6-(1-(1-hydroxypropan-2-yl)-1H-tetrazol-5-yl)pyridin-2-yl)-6-(pyrimidin-2-yl)-5,6,7,8-tetrahydro-2,6-naphthyridine-3-carboxamide] | 1.25 to 10 nM
CC(C)n1cnnc1-c1cccc(NC(=O)c2cc3c(cc2F)CCN(C(=O)OCC(F)(F)F)C3)n1 [Example 21, 2,2,2-trifluoroethyl 6-fluoro-7-((6-(4-isopropyl-4H-1,2,4-triazol-3-yl)pyridin-2-yl)carbamoyl)-3,4-dihydroisoquinoline-2(1H)-carboxylate] | 1.25 to 10 nM

More lines, now with the values ahead:

IC50 | Structure (SMILES)
1.25 to 10 nM | C[C@H](CO)n1nnnc1-c1cccc(NC(=O)c2cc3c(cn2)CCN(C(=O)c2cnn(C4CC4)c2)C3)n1 [Example 100]
< 1.25 nM | COCCC(=O)N1CCc2cc(OC)c(C(=O)Nc3cccc(-c4nnnn4[C@H](C)CO)n3)cc2C1 [Example 124]
< 1.25 nM | COc1cc2c(cc1C(=O)Nc1cccc(-c3nnnn3[C@H](C)CO)n1)CN(C(=O)C1(O)CC1)CC2 [Example 114]
< 1.25 nM | COc1cc2c(cc1C(=O)Nc1cccc(-c3nnnn3[C@H](C)CO)n1)CN(CC(=O)N1CCCC1)CC2 [Example 132]
< 1.25 nM | COc1cc2c(cc1C(=O)Nc1cccc(-c3nnnn3[C@H](C)CO)n1)CN(C(=O)OC[C@@H](O)C(F)(F)F)CC2 [Example 141]
< 1.25 nM | COc1cc2c(cc1C(=O)Nc1cccc(-c3nnnn3[C@H](C)CO)n1)CN(C(=O)N1CC[C@@H](O)C1)CC2 [Example 144, N-(6-(1-((R)-1-hydroxypropan-2-yl)-1H-tetrazol-5-yl)pyridin-2-yl)-2-((R)-3-hydroxypyrrolidine-1-carbonyl)-6-methoxy-1,2,3,4-tetrahydroisoquinoline-7-carboxamide]
< 1.25 nM | COc1cc2c(cc1C(=O)Nc1cccc(-c3nnnn3[C@H](C)CO)n1)CN(C(=O)N1CCOCC1)CC2 [Example 131]
